We go through two compounds from patent EP3974434B1, “MACROLIDE DERIVATIVES, PREPARATION METHOD AND APPLICATION THEREOF” (Zhejiang Hisun Pharmaceutical Co., Ltd., priority 2019, dated 2020).

The structures appear in SMILES notation.

Assay [1] addresses T1, ROS1(G2032R) (Homo sapiens, UniProt P08922, G2032R).
T1 construct: purchased SignalChem R14-12BG-10
As to the kind of experiment: HTRF KinEASE-TK kinase activity inhibition assay, ROS1(G2032R). Type of assay: biochemical. The note with it: ATP 0.5 µM. An excerpt: The following method was used to determine the inhibition degrees of the compounds of the present invention on the activity of recombinant human ROS1 kinase in vitro. In this method, HTRF®KinEASE-TK tyrosine kinase kit (article No. 62TK0PEB) of Cisbio company was used, the principle of the kit was based on time-resolved fluorescence resonance energy transfer (TF-FRET), and the inhibition of the compounds on the activity of the ROS1 kinase was reflected by determining a phosphorylation degree of a biotinylated polypeptide substrate mediated by ROS1 kinase. For detailed experimental operation, please refer to the kit instruction. […]
The experimental flow was briefly described as follows: a test compound was first dissolved in DMSO to prepare a storage solution, and then diluted in gradient with a buffer provided in the kit. […] An ATP Km value concentration of each ROS1 protein was determined by using an ATP solution diluted in gradient (Sangon Biotech (Shanghai) Co., Ltd., A600311). […] After incubation, fluorescence intensity values of each well at an excitation wavelength of 304 nm, and emission wavelengths of 620 nm and 665 nM were determined in a TF-FRET mode on a microplate reader, and the fluorescence intensity ratio 665/620 of each hole was calculated. […]
On the technique in general: TR-FRET usually uses a lanthanide donor and a delayed reading to cut background.

Assay [2] has as its target T2, TRKC (Homo sapiens, UniProt Q16288).
T2 construct: purchased Carna bioscience 08-197
As to the kind of experiment: HTRF KinEASE-TK kinase activity inhibition assay, TRKC. It counts as biochemical. The note with it: ATP 50 µM. The text has this:
The following method was used to determine the inhibition degrees of the compounds of the present invention on the activity of recombinant human NTRK family kinase in vitro. In this method, HTRF®KinEASE-TK tyrosine kinase kit (article number: 62TK0PEB) of Cisbio company was used, and the principle of the kit was based on time-resolved fluorescence resonance energy transfer (TF-FRET), and the inhibition of the compounds on the activity of the NTRK kinase was reflected by determining a phosphorylation degree of a biotinylated polypeptide substrate mediated by NTRK kinase. For detailed experimental operation, please refer to the kit instruction. Recombinant human wild-type NTRK proteins were purchased from Carna bioscience (the article numbers were TRKA #08-186, TRKB #08-187 and TRKC #08-197 respectively), and recombinant human mutant NTRK proteins were purchased from SignalChem (the article numbers were TRKA G595R #N16-12BG-10, TRKA G667C # N16-12CG-10, and TRKC G623R # N18-12CH-10 respectively).
The experimental methods were operated according to the steps in the kit instruction, and were briefly described as follows: a test compound was first dissolved in DMSO to prepare a storage solution, and then diluted in gradient with a buffer provided in the kit. A final concentration of the test compound in the reaction system ranged from 1,000 nM to 0.004 nM. An ATP Km value concentration of each NTRK protein was determined by using an ATP solution diluted in gradient (Sangon Biotech (Shanghai) Co., Ltd., A600311). According to the Km value obtained, the ATP concentrations in the reaction system were set as 100 µM for TRKA, 10 µM for TRKB, 50 µM for TRKC, 7 µM for TRKA(G595R), 1 µM for TRKA(G667C) and 100 µM for TRKC(G623R). The reaction was carried out in a 384-well microplate. Firstly, the compound and a certain amount of corresponding NTRK protein were added to the wells and incubated for 5 minutes to 10 minutes at room temperature. Then, the ATP solution and the biotinylated polypeptide substrate solution were added to the reaction solution and incubated with shaking at room temperature for 60 minutes. Then, an anti-phosphorylated tyrosine antibody coupled with a europium compound and streptavidin coupled with modified allophycocyanin XL665 were added to the reaction, and continuously incubated with shaking at room temperature for 1 hour. After incubation, fluorescence intensity values of each well at an excitation wavelength of 304 nm, and emission wavelengths of 620 nm and 665 nM were determined in a TF-FRET mode on a microplate reader. Compared with the fluorescence intensity ratio of a control group (0.1% DMSO), the percentage inhibition rates of the compound at each concentration were calculated, and the IC50 value of the compound was obtained by performing nonlinear regression analysis for logarithmic value of the compound concentration - inhibition rate by GraphPad Prism 5 software, which can be seen in Table 1. Table 1 IC50 data of the compounds of the present invention on TRK enzyme activity inhibition

T2 sequence (Q16288 32-839): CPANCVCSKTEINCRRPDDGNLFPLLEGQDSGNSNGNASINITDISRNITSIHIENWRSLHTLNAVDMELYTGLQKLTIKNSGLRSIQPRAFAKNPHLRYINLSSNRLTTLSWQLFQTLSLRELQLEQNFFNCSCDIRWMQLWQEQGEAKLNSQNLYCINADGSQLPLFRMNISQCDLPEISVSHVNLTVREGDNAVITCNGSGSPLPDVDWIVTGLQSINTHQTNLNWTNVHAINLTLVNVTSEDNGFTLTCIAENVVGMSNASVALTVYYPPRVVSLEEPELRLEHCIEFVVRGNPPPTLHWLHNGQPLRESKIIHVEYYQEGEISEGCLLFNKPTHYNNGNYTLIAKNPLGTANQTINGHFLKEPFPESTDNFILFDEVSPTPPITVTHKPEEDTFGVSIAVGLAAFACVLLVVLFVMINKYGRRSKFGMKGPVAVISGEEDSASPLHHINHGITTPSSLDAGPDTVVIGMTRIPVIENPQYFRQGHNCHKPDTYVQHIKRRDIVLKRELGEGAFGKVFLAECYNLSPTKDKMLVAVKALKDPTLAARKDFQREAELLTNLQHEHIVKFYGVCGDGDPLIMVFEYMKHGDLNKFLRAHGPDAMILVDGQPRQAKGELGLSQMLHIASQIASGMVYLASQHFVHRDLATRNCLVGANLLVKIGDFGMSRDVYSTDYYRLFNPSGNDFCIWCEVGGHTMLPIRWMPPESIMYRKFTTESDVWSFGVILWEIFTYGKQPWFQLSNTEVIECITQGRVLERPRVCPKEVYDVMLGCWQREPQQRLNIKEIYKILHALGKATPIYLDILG
T1 sequence (P08922 28-2347 G2032R): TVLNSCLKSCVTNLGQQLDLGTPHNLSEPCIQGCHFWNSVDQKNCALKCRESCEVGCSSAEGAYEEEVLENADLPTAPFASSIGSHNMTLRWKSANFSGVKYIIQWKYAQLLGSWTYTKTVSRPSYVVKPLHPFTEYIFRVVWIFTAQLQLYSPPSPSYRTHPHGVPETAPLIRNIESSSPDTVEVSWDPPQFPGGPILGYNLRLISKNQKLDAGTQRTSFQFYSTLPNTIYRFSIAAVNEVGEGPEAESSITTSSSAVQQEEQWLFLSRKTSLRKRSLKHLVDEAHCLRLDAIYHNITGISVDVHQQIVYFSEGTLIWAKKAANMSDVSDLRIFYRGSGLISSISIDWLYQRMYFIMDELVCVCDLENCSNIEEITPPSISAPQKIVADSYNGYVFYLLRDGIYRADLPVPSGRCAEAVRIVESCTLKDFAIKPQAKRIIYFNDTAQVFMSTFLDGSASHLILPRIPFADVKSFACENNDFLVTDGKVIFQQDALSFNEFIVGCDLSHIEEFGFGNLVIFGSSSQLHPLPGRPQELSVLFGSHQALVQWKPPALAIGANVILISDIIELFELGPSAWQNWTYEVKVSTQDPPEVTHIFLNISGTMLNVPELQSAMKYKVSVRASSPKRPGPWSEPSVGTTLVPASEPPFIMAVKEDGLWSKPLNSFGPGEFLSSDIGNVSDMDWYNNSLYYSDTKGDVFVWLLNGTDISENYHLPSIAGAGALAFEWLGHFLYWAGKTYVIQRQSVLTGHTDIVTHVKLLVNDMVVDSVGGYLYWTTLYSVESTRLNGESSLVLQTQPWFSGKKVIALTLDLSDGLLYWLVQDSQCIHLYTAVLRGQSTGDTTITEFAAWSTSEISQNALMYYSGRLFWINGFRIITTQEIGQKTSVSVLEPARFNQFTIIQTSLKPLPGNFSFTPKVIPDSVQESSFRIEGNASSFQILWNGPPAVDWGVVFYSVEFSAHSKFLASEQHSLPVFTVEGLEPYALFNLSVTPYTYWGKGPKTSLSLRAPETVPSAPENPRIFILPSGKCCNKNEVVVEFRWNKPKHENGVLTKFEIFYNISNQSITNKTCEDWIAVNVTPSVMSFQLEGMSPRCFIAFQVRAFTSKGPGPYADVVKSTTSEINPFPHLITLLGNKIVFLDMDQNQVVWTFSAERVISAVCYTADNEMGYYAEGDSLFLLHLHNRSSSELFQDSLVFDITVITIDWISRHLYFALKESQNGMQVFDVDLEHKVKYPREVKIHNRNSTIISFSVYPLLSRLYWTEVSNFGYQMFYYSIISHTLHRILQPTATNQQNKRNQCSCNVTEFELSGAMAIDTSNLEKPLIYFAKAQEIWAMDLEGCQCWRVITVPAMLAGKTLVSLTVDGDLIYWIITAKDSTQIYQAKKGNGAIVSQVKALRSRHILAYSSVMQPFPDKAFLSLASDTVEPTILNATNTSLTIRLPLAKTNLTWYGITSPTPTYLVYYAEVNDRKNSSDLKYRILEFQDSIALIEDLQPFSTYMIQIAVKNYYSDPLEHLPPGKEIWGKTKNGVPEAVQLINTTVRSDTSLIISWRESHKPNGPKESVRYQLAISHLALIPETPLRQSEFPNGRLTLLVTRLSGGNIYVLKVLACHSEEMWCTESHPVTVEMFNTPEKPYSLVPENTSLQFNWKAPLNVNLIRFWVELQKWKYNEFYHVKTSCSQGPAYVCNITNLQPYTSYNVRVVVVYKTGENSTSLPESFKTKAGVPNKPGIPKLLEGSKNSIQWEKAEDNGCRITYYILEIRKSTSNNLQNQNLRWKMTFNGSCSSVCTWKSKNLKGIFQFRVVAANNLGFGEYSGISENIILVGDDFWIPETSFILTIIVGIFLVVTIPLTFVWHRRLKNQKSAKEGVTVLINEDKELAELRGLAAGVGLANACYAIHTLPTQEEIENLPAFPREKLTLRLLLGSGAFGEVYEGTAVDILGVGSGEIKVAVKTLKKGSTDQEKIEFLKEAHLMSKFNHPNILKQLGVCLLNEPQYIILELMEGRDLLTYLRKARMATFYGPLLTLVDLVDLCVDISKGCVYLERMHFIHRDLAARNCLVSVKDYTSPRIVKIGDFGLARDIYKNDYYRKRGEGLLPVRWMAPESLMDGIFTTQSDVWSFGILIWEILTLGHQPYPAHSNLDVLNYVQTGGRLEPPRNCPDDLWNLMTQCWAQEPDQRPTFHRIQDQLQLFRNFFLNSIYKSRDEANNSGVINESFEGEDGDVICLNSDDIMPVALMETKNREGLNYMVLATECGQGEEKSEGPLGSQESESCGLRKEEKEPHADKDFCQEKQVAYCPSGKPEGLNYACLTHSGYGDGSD

Take `C[C@H]1Nc2ccn3ncc(c3n2)C(=O)NC[C@@]2(C)Cc3cc(F)cc1c3O2` [Example 8, (3R,11R)-6-fluoro-3,11-dimethyl-10-oxa-2,13,17,1 8,21-pentaazapentacyclo[13.5.2.1^8,11.0^4,9.0^18,22]tric osa-1(21),4,6,8,15(22),16,19-heptaen-14-one]: the half-maximal inhibitory concentration (IC50) – broadly, the concentration that inhibits the measured activity by half – in assay [1] is 0.34 nM; in assay [2], 0.22 nM.
For `C[C@H]1Nc2ccn3nc(N)c(c3n2)C(=O)NC[C@@]2(C)Cc3cc(F)cc1c3O2` [Example 25, (3R,11R)-16-amino-6-fluoro-3,11-dimethyl-10-oxa-2,13,17,18,21-pentaazapentacyclo[13.5.2.1^8,11.0^4,9. 0^18,22]tricosa-1(21),4,6,8,15(22),16,19-heptaen-14-one], the IC50 is 2.11 nM in assay [1] and 0.7 nM in assay [2].
